Measured values as given in patent US20160291027A1, “METHODS FOR […] ABILITY OF A Z[…] COMPOUND TO TREAT CANCER” (Eisai R&D Management Co., Ltd., priority 2007, published 2016).

What was measured:
[1] = tested on: panel of 31 melanoma cell lines; experiment: MTS cell viability assay in a panel of 31 melanoma cell lines; type: cell-based; conditions: for % of Less Sensitive cell lines / Less sensitive cell lines (number/total) / Sensitive cell lines (number/total): Cut-Off IC50 < 100 nmol/L; for Number of sensitive cell lines: sensitivity defined as IC50<500 nmol/L
Description: Cell viability was also assessed in a panel of 31 melanoma cell lines carrying different mutations in BRAF following treatment with a zearalenone analog compound, Compound 106. All assays were performed in a 96 well format. Cell viability was assessed after four days following treatment. Cell viability was assessed with a MTS Assay (CellTiter96®AqueousOne Solution Cell Proliferation Assay, Promega) in a panel of cell lines carrying various BRAF mutations to determine the effect of BRAF genotype on drug sensitivity. The mutational status of these cell lines and IC50 in nmol/L is depicted in FIG. 3C.
Cell viability was assessed in a panel of melanoma cell lines carrying different mutations in BRAF, and PTEN following treatment with the MEK inhibitor, Compound 106. The panel of 31 melanoma cell lines was tested with eight concentrations of Compound 106 ranging from 10 μmol/L to 0.0003 μmol/L of Compound 106. (The panel of cell lines also carries mutations in one or more additional genes associated with cancer).
All assays were performed in a 96 well format. Cell viability was assessed after four days following treatment. Cell viability was assessed with a MTS Assay (CellTiter96®AqueousOne Solution Cell Proliferation Assay, Promega) to determine the effect of genotype on drug sensitivity.

[2] = tested on: BRAF mutant (V600E) melanoma cell lines; experiment: Cell growth assay in BRAF mutant (V600E) melanoma cell lines; type: cell-based; conditions: continuous presence of compound
Description: In a separate experiment, Compound 106 was tested in a panel of BRAF mutant (V600E) melanoma cell lines. (This set of cell lines represents 17 additional cell lines relative to FIG. 3C.) The melanoma cell lines were introduced into 96-well plates and grown in the absence or continuous presence of compound 106. IC50 values were determined as the concentration of a substance which inhibits cell growth by 50% compared to untreated cell populations.

[3] = tested on: DBTRG-05MG human glioblastoma xenografts; experiment: Subcutaneous DBTRG-05MG glioblastoma xenograft model; type: in vivo, mice
Description: The purpose of this study was to investigate anticancer activity of Compound 106 in a human DBTRG-05MG glioblastoma xenograft model. DBTRG-05MG human glioblastoma cancer cells, which carry the BRAF (V600E) mutation, were grown in monolayer cultures in ATCC-recommended growth media at 37° C. in a 5% CO2 humidified incubator. Cells were expanded in T225 flasks for the in vivo study. On the day of injection, growth medium was removed, flasks were washed with PBS, and cells were collected by trypsinization. The cells were washed and collected by centrifugation, and resuspended in ice-cold PBS.
Female athymic NU/NU mice (6 week old, Charles River Laboratories (Wilmington, Mass.)) were inoculated subcutaneously (s.c.) with 5×10^6 DBTRG-05MG human glioblastoma cancer cells. Those animals that developed tumors of approximately 150 mm^3 were selected and randomized into five groups.
The study consisted of a vehicle-treated group and four drug-treated groups of 8 mice per group for a total of 40 mice on the first day of treatment. All treatments were initiated on day 21. Compound 106 was administered intravenously (i.v.) on a Q4D×3 (days 21, 25, and 29) dosing schedule at dosages of 5, 10, 20 and 40 mg/kg with a volume of injection of 0.1 mL per 10 g body weight (Q4D×3=every four days for a total of three injections). The control group was treated with vehicle alone (20% Captisol in water; Captisol® (Sulfobutyl Ether Beta Cycolodextrin, Sodium Salt; Cydex, Inc., KS)).
General health of the mice was monitored and mortality was recorded daily. Tumor dimensions and animal body weights were recorded twice a week starting on the first day of treatment. The s.c. tumor volumes were measured and animals were weighed twice weekly starting with the first day of treatment. Tumor volume was determined by caliper measurement (mm) and using the following formula: […]
The study was terminated 60 days after cancer cell transplantation. […]

[4] = tested on: BRAF-mutated xenograft models (breast, colon, and melanoma cell lines); experiment: Other xenograft models, BRAF-mutated; type: in vivo, mice; conditions: 40 mg/kg i.v. QD×5 for 2 weeks
Description: Additionally, one, five, and seven out of eight animals in the groups treated with Compound 106 at doses of 10, 20, or 40 mg/kg, respectively, were tumor-free at the end of the study on day 59. […] Compound 106 was also tested in other xenograft models, in which BRAF-mutated cells, including breast, colon, and melanoma cell lines, or wildtype cells, including pancreatic cell lines, were transplanted subcutaneously into female nude mice. Compound 106 or a vehicle control was administered intravenously.

[5] = tested on: cell lines which carried a BRAF V600E mutation; experiment: Cell growth assay (CellTiter-Glo or methylene blue) in solid cancer cell lines; type: cell-based; conditions: 96 hours, 0.3-10000 nM
Description: In a separate experiment, Compounds 091 and 106 were tested in solid cancer cell lines from different tissue types (shown in FIG. 3B for 21 cell lines for compound 091 and 19 cell lines for compound 106). All cell lines were introduced into 96-well plates and grown in the absence or continuous presence of 0.3-10000 nM of either compound 091 or compound 106 for 96 hours. Cell growth was assessed using a CellTiter-Glo® Luminescent Cell Viability Assay (Promega) or a methylene blue assay. IC50 values were determined as the concentration of a substance which inhibits cell growth by 50% compared to untreated cell populations.

[6] = mutant BRAF gene (20 cell lines)
[7] = total cell lines (31 cell lines)
[8] = wild-type BRAF gene (11 cell lines)

CCNc1cc(O)c2c(c1)/C=C/C[C@H](O)[C@H](O)C(=O)/C=C\[C@@H](C)[C@H](C)OC2=O [Compound 106]
% of Less Sensitive cell lines [1, 6]: (25%)
Less sensitive cell lines (number/total) [1, 6]: 5/20
Sensitive cell lines (number/total) [1, 6]: 15/20
% of Less Sensitive cell lines [1, 7]: (42%)
Less sensitive cell lines (number/total) [1, 7]: 13/31
% of Less Sensitive cell lines [1, 8]: (73%)
Less sensitive cell lines (number/total) [1, 8]: 8/11
Sensitive cell lines (number/total) [1, 8]: 3/11
% of Cell lines with IC50 < 100 nmol/L ([1]; PTEN gene Mutant (8 cell lines), Total): (50%)
% of Cell lines with IC50 < 100 nmol/L ([1]; PTEN gene Mutant, BRAF Mutant): (50%)
% of Cell lines with IC50 < 100 nmol/L ([1]; PTEN gene Mutant, BRAF Wild Type): (0%)
% of Cell lines with IC50 < 100 nmol/L ([1]; PTEN gene Wild Type (23 cell lines), Total): (65%)
% of Cell lines with IC50 < 100 nmol/L ([1]; PTEN gene Wild Type, BRAF Mutant): (86%)
% of Cell lines with IC50 < 100 nmol/L ([1]; PTEN gene Wild Type, BRAF Wild Type): (33%)
% of Cell lines with IC50 < 100 nmol/L ([1]; p-AKT expression High (G2-G3), BRAF Mutant): (67%)
% of Cell lines with IC50 < 100 nmol/L ([1]; p-AKT expression High (G2-G3), BRAF Wild Type): (0%)
% of Cell lines with IC50 < 100 nmol/L ([1]; p-AKT expression High (G2-G3), Total): (57%)
% of Cell lines with IC50 < 100 nmol/L ([1]; p-AKT expression Low (G0-G1), BRAF Mutant): (79%)
% of Cell lines with IC50 < 100 nmol/L ([1]; p-AKT expression Low (G0-G1), BRAF Wild Type): (30%)
% of Cell lines with IC50 < 100 nmol/L ([1]; p-AKT expression Low (G0-G1), Total): (58%)
Number of sensitive cell lines ([1]; of the 8 cell lines with mutant PTEN or loss of PTEN): 3 cell lines
Number of sensitive cell lines ([1]; of the 23 cell lines with wild-type PTEN): 12 cell lines
Sensitivity of cell lines with BRAF mutation and wild-type PTEN status [2]: very sensitive
Tumor-free animals on day 60 ([3]; 5 mg/kg i.v. Q4D×3): One out of eight
Tumor-free animals on day 60 ([3]; 20 mg/kg i.v. Q4D×3): One out of eight
Anticancer activity (tumor volume vs. control group) ([3]; 5, 10, 20, and 40 mg/kg i.v. Q4D×3): statistically significant anticancer activity
tumor regression ([4]; strongest effect of the range): about 73%
tumor growth inhibition ([4]; weakest effect of the range: tumor stasis (but not regression) during treatment): > 80%
Sensitivity of BRAF V600E cell lines (concentration range) [5]: low-nM or sub-μM concentration range
